Assay results reported in patent US20060183773A1, “Uses of methylphenidate derivatives” (priority 2005, published 2006).
Like-named read-outs stand apart in the source and are kept apart here.

What was measured:
Type in all cases: cell-based, human
[1] = tested on: STAT4; experiment: Custom AntibodyArray, TRiPS cells: STAT4; settings: 15 μg/ml, 30 minutes
Description: (§1) Day 18 TRiPS cells, 1×10^6, were incubated for 30 minutes at 37° C., either with nothing added (“Nil”), with 1 μl CD3/CD28 Dynabeads (Dynal, Oslo, Norway) (“CD3/CD28 beads”) per 100,000 cells, or with CD3/CD28 beads and 15 μg/ml of the compound of formula II (Cpd II). After the incubation, the cells were lysed in Cell-Lytic Mammalian Cell Extraction Reagent (Sigma). After centrifugation to pellet cellular debris, the supernatants (cell extracts) were obtained.
(§2) The cell extracts (supernatants) were then analyzed using a Custom AntibodyArray™ manufactured by Hypromatrix Inc., Worcester, Mass., following the manufacturer's instructions. The Custom AntibodyArray™ is a nylon membrane blotted with antibodies to the proteins listed below. Briefly, the cell extracts were incubated with duplicate Custom AntibodyArray™'s for 2 hours at room temperature with slow shaking, followed by three washes with Tris buffer (150 mM NaCl, 25 mM Tris, 0.05% Tween-20, pH 7.5). HRP-labeled antibodies specific for phosphorylated-tyrosine, phosphorylated-serine and phosphorylated-threonine in Tris buffer were added, and the arrays incubated for 2 hours. After three more washes with Tris buffer, a peroxidase-reactive luminescent substrate was added. The arrays were visualized by exposure to X-ray film. Densitometry of the X-ray films was measured by scanning and computer analysis.

[2] = tested on: RAP1; experiment: Custom AntibodyArray, TRiPS cells: RAP1; settings: 15 μg/ml, 30 minutes
Description: as §1, §2

[3] = tested on: JNK2; experiment: Custom AntibodyArray, TRiPS cells: JNK2; settings: 15 μg/ml, 30 minutes
Description: as §1, §2

[4] = tested on: TNFα; experiment: TNFα release by PBL, ELISA; settings: donor GR191; 5 μg/ml PHA, 72 h; Cpd II 15 and 50 μg/ml, Dex 10 μM; FIG. 7
Description: (§3) After this incubation, PHA was added to give a final concentration of 5 μg/ml, and the cells were incubated for an additional 72 hours at 37° C., 5% CO2. All cultures were performed in triplicate. Cells were then removed by centrifugation at 1000 rpm for 10 minutes.
The TNFα ELISA was performed as described in Example 2 using matched pair antibodies from Pierce Endogen (2 μg/ml for the coating antibody and 250 ng/ml for the second antibody).

[5] = tested on: T cells; experiment: CD69+TCR staining of PBL, flow cytometry (T-cell activation); settings: for CD69+TCR staining of PHA-stimulated cells: PHA alone 84%
Description: as §3
The cells were further analyzed by flow cytometry. Annexin was used to determine populations of dead or dying cells. Anti-CD69 antibody was used to establish the level of cellular activation. Antibody to T-cell receptor αβ (TCR) was also used. Recombinant Annexin 5 (PE and FITC conjugates) and the antibodies were all purchase from Caltag (Burlingham, Calif.) and used following the manufacturer's recommendations.

[6] = tested on: RAS; experiment: RAS activation pulldown assay in TRiPS cells; settings: CD3/CD28 beads + 15 μg/ml
Description: Day 10 TRiPS cells, 1×10^6, were incubated with 15 μg/ml of the compound of formula II (Cpd II) for 1 hour at 37° C. Then, the cells were incubated with CD3/CD28 beads (1 μl per 100,000 cells) (obtained from Dynal) for 10 minutes at 37° C. The cells were then lysed with a mild buffer (supplied with Pierce EZ-Detect activation kit described below) to produce cell extracts. Protein concentrations of the resulting extracts were determined by bicinchoninic acid (BCA) assay (Pierce) and placed on ice for immediate use.
Pulldown assays were performed using Pierce EZ-Detect activation kits according to the manufacturer's instructions utilizing GST-RAF-1-RBD and GST-RalGDS-RBD for RAS and RAP-1 respectively. Briefly, 400 μg total protein from each extract was combined with recombinant protein and glutathione resin and incubated at 4° C. for one hour with gentle shaking. The resin was then washed to remove unbound protein and the activated RAS and RAP-1 proteins were removed by boiling in the presence of SDS-PAGE loading dye containing reducing agent. RAS and RAP-1 western blots were performed to visualize the proteins using antibodies supplied with the kit. Densitometry of the X-ray films was done by scanning and computer analysis.

[7] = tested on: VAV; experiment: Custom AntibodyArray, TRiPS cells: VAV; settings: 15 μg/ml, 30 minutes
Description: as §1, §2

[8] = tested on: IkB-ε; experiment: Custom AntibodyArray, TRiPS cells: IkB-ε; settings: 15 μg/ml, 30 minutes
Description: as §1, §2

[9] = tested on: MEKK1; experiment: Custom AntibodyArray, TRiPS cells: MEKK1; settings: 15 μg/ml, 30 minutes
Description: as §1, §2

[10] = tested on: IL-8; experiment: IL-8 release from LPS-stimulated THP-1 monocytes, ELISA; settings: for inhibition at 15 µg/mL: Homo sapiens, read-out: % Inhibition (IL-8)
Description: THP-1 is a monocyte cell line obtained from American Type Culture Collection (ATCC) (catalog no. TIB-202). […] After 1 hour, lipopolysaccharide (LPS) (obtained from Sigma) was added to the cultures to give a final concentration of 200 ng/ml, and the cells were then incubated for an additional 4 hours or for an additional 24 hours. After the incubation, the cells were centrifuged, and the supernatants were collected. The concentrations of IL-8 and TNFα in the supernatants were determined by ELISA.
The concentrations of IL-8 in the supernatants were determined by ELISA performed as described in Example 4.

[11] = tested on: IkB-β; experiment: Custom AntibodyArray, TRiPS cells: IkB-β; settings: 15 μg/ml, 30 minutes
Description: as §1, §2

[12] = tested on: STAT5b; experiment: Custom AntibodyArray, TRiPS cells: STAT5b; settings: 15 μg/ml, 30 minutes
Description: as §1, §2

SMILES: COC(=O)C(c1ccc(-c2ccccc2)cc1)C1CCCCN1 (stereo not shown) [Cpd II]
- Effect of Cpd II on the protein in CD3/CD28 stimulated TRiPS cells [1]: Activated
- Effect of Cpd II on the protein in CD3/CD28 stimulated TRiPS cells [2]: Activated
- Effect of Cpd II on the protein in CD3/CD28 stimulated TRiPS cells [3]: Decreased level back to basal levels (Nil control)
- release of TNFα from PHA-stimulated PBL [4]: significantly inhibited the release of TNFα
- CD69+TCR staining of PHA-stimulated cells ([5]; PHA 5 μg/ml plus 15 μg/ml): 64%
- CD69+TCR staining of PHA-stimulated cells ([5]; PHA 5 μg/ml plus 50 μg/ml): 54%
- CD69+TCR staining (activated T cells) ([5]; compound alone, no PHA): not detected
- inhibition of RAS protein (in words) [6]: very strong inhibition of RAS protein
- Integrated Optical Density for RAS assay ([6]; no treatment 66.83, beads only 245.91): 84.98
- Effect of Cpd II on the protein in CD3/CD28 stimulated TRiPS cells [7]: No effect
- Effect of Cpd II on the protein in CD3/CD28 stimulated TRiPS cells [8]: Slightly decreased the level
- Effect of Cpd II on the protein in CD3/CD28 stimulated TRiPS cells [9]: Decreased level back to basal levels (Nil control)
- inhibition at 15 µg/mL ([10]; THP-1, 4 h): 23%
- inhibition at 15 µg/mL ([10]; THP-1, 24 h): 33%
- Mean IL-8 Concentration ([10]; THP-1, LPS 200 ng/ml, 4 hours, Cpd II 15 μg/ml, Dex 10 μM, LPS alone 2844.60): 2185.00 ± 78.30 pg/mL
- Mean IL-8 Concentration ([10]; THP-1, LPS 200 ng/ml, 24 hours, Cpd II 15 μg/ml, Dex 10 μM, LPS alone 6653.20): 4490.20 ± 264.46 pg/mL
- release of IL-8 from LPS-stimulated monocytes (in words) ([10]; THP-1, LPS 200 ng/ml, Cpd II 15 μg/ml, Dex 10 μM): significantly inhibited the release of IL-8
- Effect of Cpd II on the protein in CD3/CD28 stimulated TRiPS cells [11]: Decreased level back to basal levels (Nil control)
- Effect of Cpd II on the protein in CD3/CD28 stimulated TRiPS cells [12]: Activated
